From US5306808A, “Peptide derivatives having vasodilating activity” (Takeda Chemical Industries, Ltd., priority 1991, dated 1994)
Where a SMILES comes first, the peptide text is derived from it. Bridges are numbered along the chain shown (N, C = ends). Where no end group is shown, it is not given here.

Columns and labels:
[1] = test system: porcine coronary smooth muscles (constriction due to endothelin-1); experiment: Assay of constriction suppressing activity to porcine coronary smooth muscles; assay type: cell-based; settings: Sample: constriction due to 10^-9 M ET-1 in the presence of 10^-5 sample; Control: constriction due to 10^-9 M ET-1; formula shown only as drawing 9
Method: Its tension was detected by a force displacement transducer UL-10GR (Minebea), and recorded by a polygraph (NEC Sanei). […] A tension of 1.25 to 1.5 g was applied to each of the strips, followed by equilibration for 1.5 hours. 60 mM KCl was repeatedly applied thereto at intervals of 30 minutes until the constriction response became constant. After additional equilibration for 1.5 hours, a sample for assay was given. The constriction of the strips was normalized by the constriction response of the individual strips to 60 mM KCl and statistically processed.

endothelin receptor = experiment: Assay of affinity for receptor (I125-ET-1 binding to porcine myocardial membrane fraction); settings: ET-1 = 100
Method: A membrane fraction prepared from the porcine heart was diluted to 0.15 mg/ml by using a buffer solution [PBS (pH 7.4) containing 0.5 mM CaCl2, 1.0 mM MgCl2, 0.02% NaN3, 0.1% BSA (fraction V, Sigma), 0.1 mM PMSF and 0.1 μg/ml pepstatin (binding buffer)] for assay, and 100 μl of the resulting suspension of the membrane fraction was poured into each assay tube to use for assay. To this suspension of the membrane fraction were added 2 μl of an endothelin-1 solution labeled with 5 μM radioactive iodine. Further, 3 μl of a test peptide solution was added thereto, followed by maintenance at a temperature of 25° C. for 1 hour. Then, the resulting suspension was diluted with 900 μl of the buffer solution for assay cooled with ice, and thereafter separated into a supernatant and a precipitate by centrifugation at 12,000×g for 10 minutes. Cell membranes and an endothelin receptor embedded therein were contained in the precipitate, and radioactive iodine-labeled endothelin combined with the receptor was also recovered in the precipitate. Accordingly, the amount of radioactive iodine-labeled endothelin combined with the endothelin receptor was determined by measuring the amount of radioactive iodine contained in the precipitate with a gamma-ray counter. Compounds in which the affinity for the endothelin receptor is high and the maximum constriction is not high are antagonists. Contrary to this, compounds in which the affinity for the endothelin receptor is high and the maximum constriction is high are agonists.

porcine coronary artery = assay type: cell-based; settings: for Constrictor activity (Relative potency): ET-1 = 100; for Maximum Constriction (% 60 mM KCl): normalized to constriction response to 60 mM KCl
Method: Each of helical strips 2 mm×15 mm prepared from the coronary right ramus circumflexus from which the adventitial connective tissues and the endothelial cells were removed was set to each of 4 ml organ baths. Its tension was detected by a force displacement transducer UL-10GR (Minebea), and recorded by a polygraph (NEC Sanei). The organ baths were maintained at 37° C., and filled with a Krebs-Henseleit solution (composition:118 mM NaCl, 4.7 mM KCl, 2.5 mM CaCl2, 1.2 mM KH2 PO4, 25.0 mM NaHCO3, 1.2 mM MgSO4, 10.0 mM glucose) gassed with 95% O2 and 5% CO2.
A tension of 1.25 to 1.5 g was applied to each of the strips, followed by equilibration for 1.5 hours. 60 mM KCl was repeatedly applied thereto at intervals of 30 minutes until the constriction response became constant. After additional equilibration for 1.5 hours, a sample for assay was given. The constriction of the strips was normalized by the constriction response of the individual strips to 60 mM KCl and statistically processed.
(2) As to the antagonist property or the agonist property of the peptide derivatives of present invention to endothelin, the affinity for an endothelin receptor and the constrictor activity to porcine coronary smooth muscles (according to the method described in (1) described above) were assayed. The affinity for the receptor was assayed by the following method.

| Compound | Suppressing activity to ET-1 [1] | Receptor binding activity (Relative potency) (endothelin receptor) | Constrictor activity (Relative potency) (porcine coronary artery) | Maximum Constriction (% 60 mM KCl) (porcine coronary artery) |
| --- | --- | --- | --- | --- |
| CC[C@H](C)[C@H](NC(=O)[C@H](CC(=O)O)NC(=O)[C@H](CC(C)C)NC(=O)[C@H](Cc1c[nH]cn1)NC(=O)[C@@H]1CSSC[C@H](N)C(=O)N[C@@H](CO)C(=O)N[C@@H](Cc2ccccc2)C(=O)N[C@@H](CO)C(=O)N[C@@H](CO)C(=O)N[C@@H](CC(C)C)C(=O)N[C@@H](CCSC)C(=O)N[C@@H](CC(=O)O)C(=O)N[C@@H](CCCCN)C(=O)N[C@@H](CCC(=O)O)C(=O)N[C@@H](Cc2ccccc2)C(=O)N[C@@H](C(C)C)C(=O)N[C@@H](Cc2ccc(O)cc2)C(=O)N[C@@H](Cc2ccccc2)C(=O)N1)C(=O)N[C@H](C(=O)N[C@@H](Cc1c[nH]c2ccccc12)C(=O)O)[C@@H](C)CC [Example 1, [Phe^3,11]-ET-1] (H-CSFSSLMDKEFVYFCHLDIIW-OH; disulfide 1-15) | 77 | 0.45 | < 0.3 | 9 |
| CC[C@H](C)[C@H](NC(=O)[C@H](CC(=O)O)NC(=O)[C@H](CC(C)C)NC(=O)[C@H](Cc1c[nH]cn1)NC(=O)[C@@H]1CSSC[C@H](N)C(=O)N[C@@H](CO)C(=O)N[C@@H](Cc2ccccc2)C(=O)N[C@@H](CO)C(=O)N[C@@H](CO)C(=O)N[C@@H](CC(C)C)C(=O)N[C@@H](CCSC)C(=O)N[C@@H](CC(=O)O)C(=O)N[C@@H](CCCCN)C(=O)N[C@@H](CCC(=O)O)C(=O)N[C@@H](C)C(=O)N[C@@H](C(C)C)C(=O)N[C@@H](Cc2ccc(O)cc2)C(=O)N[C@@H](Cc2ccccc2)C(=O)N1)C(=O)N[C@H](C(=O)N[C@@H](Cc1c[nH]c2ccccc12)C(=O)O)[C@@H](C)CC [Example 2, [Phe^3, Ala^11]-ET-1] (H-CSFSSLMDKEAVYFCHLDIIW-OH; disulfide 1-15) | 87 | 0.5 | < 0.1 | 10 |
| CC[C@H](C)[C@H](NC(=O)[C@H](CC(=O)O)NC(=O)[C@H](CC(C)C)NC(=O)[C@H](Cc1c[nH]cn1)NC(=O)[C@@H]1CSSC[C@H](N)C(=O)N[C@@H](CO)C(=O)N[C@@H](C)C(=O)N[C@@H](CO)C(=O)N[C@@H](CO)C(=O)N[C@@H](CC(C)C)C(=O)N[C@@H](CCSC)C(=O)N[C@@H](CC(=O)O)C(=O)N[C@@H](CCCCN)C(=O)N[C@@H](CCC(=O)O)C(=O)N[C@@H](Cc2ccccc2)C(=O)N[C@@H](C(C)C)C(=O)N[C@@H](Cc2ccc(O)cc2)C(=O)N[C@@H](Cc2ccccc2)C(=O)N1)C(=O)N[C@H](C(=O)N[C@@H](Cc1c[nH]c2ccccc12)C(=O)O)[C@@H](C)CC [Example 3, [Ala^3, Phe^11]-ET-1] (H-CSASSLMDKEFVYFCHLDIIW-OH; disulfide 1-15) | 56 | 0.1 | < 0.1 | 10 |
| CC[C@H](C)[C@H](NC(=O)[C@@H](NC(=O)[C@H](CC(C)C)NC(=O)[C@H](Cc1c[nH]cn1)NC(=O)[C@@H]1CSSC[C@H](N)C(=O)N[C@@H](CO)C(=O)N[C@H]2CSSC[C@H](NC(=O)[C@H](CCC(=O)O)NC(=O)[C@H](CCCCN)NC(=O)[C@H](CC(=O)O)NC(=O)[C@H](CCSC)NC(=O)[C@H](CC(C)C)NC(=O)[C@H](CO)NC(=O)[C@H](CO)NC2=O)C(=O)N[C@@H](C(C)C)C(=O)N[C@@H](Cc2ccc(O)cc2)C(=O)N[C@@H](Cc2ccccc2)C(=O)N1)[C@@H](C)O)C(=O)N[C@H](C(=O)N[C@@H](Cc1c[nH]c2ccccc12)C(=O)O)[C@@H](C)CC [Example 51, [Thr^18]-ET-1] (H-CSCSSLMDKECVYFCHLTIIW-OH; disulfide 1-15, 3-11) | – | 100 | 26 | 76 |
| CC[C@H](C)[C@H](NC(=O)[C@H](CC(=O)O)NC(=O)[C@H](CC(C)C)NC(=O)[C@H](Cc1c[nH]cn1)NC(=O)[C@@H]1CSSC[C@H](N)C(=O)N[C@@H](CO)C(=O)N[C@@H](CC(C)C)C(=O)N[C@@H](CO)C(=O)N[C@@H](CO)C(=O)N[C@@H](CC(C)C)C(=O)N[C@@H](CCSC)C(=O)N[C@@H](CC(=O)O)C(=O)N[C@@H](CCCCN)C(=O)N[C@@H](CCC(=O)O)C(=O)N[C@@H](C)C(=O)N[C@@H](C(C)C)C(=O)N[C@@H](Cc2ccc(O)cc2)C(=O)N[C@@H](Cc2ccccc2)C(=O)N1)C(=O)N[C@H](C(=O)N[C@@H](Cc1c[nH]c2ccccc12)C(=O)O)[C@@H](C)CC [Example 52, [Leu^3, Ala^11]-ET-1] (H-CSLSSLMDKEAVYFCHLDIIW-OH; disulfide 1-15) | – | 0.35 | < 0.1 | 6 |
| [Asn^18 ]-ET-1 (CSCSSLMDKECVYFCHLNIIW; ends and bridges not checked; cysteine pairing not given here; UniProt P05305 53-73, looked up, variant D18N) [Example 35] | – | 9.1 | < 0.1 | 43 |
| [Trp^3,11 ]-ET-1 (CSWSSLMDKEWVYFCHLDIIW; ends and bridges not checked; cysteine pairing not given here; UniProt P05305 53-73, looked up, variant C3W C11W) [Example 4] | – | 0.27 | < 0.1 | 10 |
| [Val^3,Ala^11 ]-ET-1 (CSVSSLMDKEAVYFCHLDIIW; ends and bridges not checked; cysteine pairing not given here; UniProt P05305 53-73, looked up, variant C3V C11A) [Example 41] | – | 4.5 | 73 | 130 |
